Columns and labels:
bacterial vaginosis = assay: Phase II clinical trial, recovery by Amsel criteria and Nugent score; format: in vivo, human; settings: for Recovery of patients after relapse of bacterial vaginosis / Recovery of patients suffering from a first episode of bacterial vaginosis: visit V4 as titled, Amsel and Nugent
Excerpt: The example describes the clinical trial Phase II carried out on 114 patients affected by bacterial vaginosis, non-pregnant, having an age between 18 and 50 years. The diagnosis of bacterial vaginosis was based on Amsel criteria, wherein at least three criteria out of four must be positive, and on the Nugent score, wherein a score higher than four indicates the presence of pathogenic vaginal bacteria. The objectives of the trial were the evaluation of recovery from bacterial vaginosis both according to Amsel criteria (Amsel index <3) and according to Nugent score (Nugent index <4) 7-10 days after the end of the therapy. The secondary objectives of the trial were the recovery, separately evaluated according to Amsel criteria and to Nugent score, at the first control visit (V3), the continued recovery at the second control visit (V4) and the evaluation of the composition of vaginal microbiota by means of PCR and PCR-DGGE. In particular, the patients affected by bacterial vaginosis and not affected by contemporaneous viral, protozoan and fungal vaginal infections were assigned to one of the following treatment groups using a centralized randomization procedure and a double-blind experimental design: Group A: 21 patients receiving a vaginal tablet of rifaximin containing 100 mg rifaximin, prepared according to Example 2, once a day for five days, in the evening; Group B: 23 patients receiving a vaginal tablet of rifaximin containing 25 mg rifaximin, prepared according to Example 1, once a day for five days, in the evening; Group C: 19 patients receiving a vaginal tablet of rifaximin containing 100 mg rifaximin, prepared according to Example 2, once a day for two days, in the evening, plus a vaginal tablet of placebo, once a day for the remaining three days, in the evening; Group D: 22 patients receiving a placebo tablet prepared according to Example 1, wherein the rifaximin amount was replaced by lactose monohydrate, once a day for five days, in the evening. The study included a screening visit (V1) followed by a randomization visit after seven days (V2), by a first control visit 7-10 days after the end of the therapy (V3) and by a second and last control visit 28-35 days after the end of the therapy (V4). The evaluation of the attainment of the primary objective was carried out during visit V3, and the evaluation of the attainment of the secondary objectives was evaluated during the second and last visit (V4). Table 18 reports the percent recovery from the disease at the visit V3, according to both evaluation criteria, namely the clinical one (Amsel) and the microbiological (Nugent). The recovery was evaluated according to Nugent score by using a Gram stained slide and by evaluating the proportion between Lactobacilli and other bacteria such as Gram-variable or Gram-negative coccobacilli, Gram-variable curved bacilli.

Gardnerella vaginalis = assay: Vaginal microbiota by quantitative real-time PCR; format: in vivo; settings: for Target DNA/genomic vaginal DNA, Gardnerella vaginalis / Target DNA/genomic or vaginal DNA, Gardnerella vaginalis: average; for Target DNA/genomic or vaginal DNA, Gardnerella vaginalis: visit V4, patients maintaining recovery
Experimental: (§1) During the clinical trial, described in Example 12, samples of vaginal cleansing were collected and the composition of vaginal microbiota was determined by means of the quantitative real-time PCR.
(§2) With the real-time PCR the DNA samples are amplified with gender- and/or species-specific primers whose target is the 16S rRNA bacterial gene or the 16S-23 S rRNA region.
(§3) In particular, specific probes were used for the Lactobacillus gender, for Gardnerella vaginalis, for Atopobium, for Prevotella and for Veillonella, since they represent the main bacterial groups suffering from modifications in case of bacterial vaginosis.
(§4) Table 28 reports the values of real-time PCR relating to bacterial genders and species quantified in vaginal cleansings of women belonging to the different treatment groups, expressed as total target DNA ng/genomic DNA μg, for microbial species tested for each group at the visit V3 if compared to the visit V1.
(§5) The composition of vaginal microbiota was determined by means of the quantitative real-time PCR technique of patients maintaining their recovery at the visit V4, 30-40 days after the end of the therapy, and the DNA samples amplified with gender- and/or species-specific primers were evaluated by means of the real-time PCR technique.
(§6) Table 29 reports the values of real-time PCR relating to target bacterial genders and species quantified in vaginal rinses of women belonging to the different treatment groups, expressed as total target DNA ng/genomic DNA μg, for microbial species tested for each group at the visit V4 when compared to the values observed at the visit V1 of all treated patients.

Atopobium = assay: Vaginal microbiota by quantitative real-time PCR; format: in vivo; settings: for Target DNA/genomic vaginal DNA, Atopobium / Target DNA/genomic or vaginal DNA, Atopobium: average; for Target DNA/genomic or vaginal DNA, Atopobium: visit V4, patients maintaining recovery
Experimental: as §1, §2, §3, §4, §5, §6

Prevotella = assay: Vaginal microbiota by quantitative real-time PCR; format: in vivo; settings: for Target DNA/genomic vaginal DNA, Prevotella / Target DNA/genomic or vaginal DNA, Prevotella: average; for Target DNA/genomic or vaginal DNA, Prevotella: visit V4, patients maintaining recovery
Experimental: as §1, §2, §3, §4, §5, §6

Veillonella = assay: Vaginal microbiota by quantitative real-time PCR; format: in vivo; settings: average; for Target DNA/genomic or vaginal DNA, Veillonella: visit V4, patients maintaining recovery
Experimental: as §1, §2, §3, §4, §5, §6

[1] = visit V3, Group A: 1 tablet 100 mg × 5 days
[2] = visit V3, Group A: 1 tablet 100 mg × 5 days, listed as rifaximin
[3] = visit V3, Group B: 1 tablet 25 mg × 5 days
[4] = visit V3, Group B: 1 tablet 25 mg × 5 days, listed as rifaximin
[5] = visit V3, Group C: 1 tablet 100 mg × 2 days
[6] = visit V3, Group C: 1 tablet 100 mg × 2 days, listed as rifaximin
[7] = Group A: 1 tablet 100 mg × 5 days
[8] = Group B: 1 tablet 25 mg × 5 days
[9] = Group C: 1 tablet 100 mg × 2 days
[10] = all groups treated with rifaximin, compared to placebo
[11] = visit V1 (before therapy), Group A: 1 tablet 100 mg × 5 days
[12] = visit V1 (before therapy), Group B: 1 tablet 25 mg × 5 days
[13] = visit V1 (before therapy), Group C: 1 tablet 100 mg × 2 days

SMILES: CO[C@H]1/C=C/O[C@@]2(C)Oc3c(C)c(O)c4c(O)c(c5c(nc6cc(C)ccn65)c4c3C2=O)NC(=O)/C(C)=C\C=C\[C@H](C)[C@H](O)[C@@H](C)[C@@H](O)[C@@H](C)[C@H](OC(C)=O)[C@@H]1C [Rifaximin]
- Patients with decrease Nugent score ≥8 points (bacterial vaginosis; [1]): 14.29%
- Patients with decreased Nugent score ≤0 points (not responding) (bacterial vaginosis; [1]): 9.52%
- Patients with decreased Nugent score ≥3 points (bacterial vaginosis; [1]): 52.4%
- Patients with decreased Nugent score ≥5 points (bacterial vaginosis; [1]): 28.6%
- Recovered patients, both criteria (Amsel and Nugent) (bacterial vaginosis; [1]): 25.9%
- Recovered patients, clinical evaluation criteria (Amsel) (bacterial vaginosis; [1]): 66.7%
- Recovered patients, microbiological evaluation criteria (Nugent) (bacterial vaginosis; [1]): 25.9%
- Patients with decreased Nugent score ≥3 points (bacterial vaginosis; [2]): higher than 50%
- Patients with decreased Nugent score ≥5 points (bacterial vaginosis; [2]): about 28%
- Recovered patients, microbiological evaluation criteria (Nugent) (bacterial vaginosis; [2]): about 25%
- Patients with decrease Nugent score ≥8 points (bacterial vaginosis; [3]): 17.39%
- Patients with decreased Nugent score ≤0 points (not responding) (bacterial vaginosis; [3]): 17.39%
- Patients with decreased Nugent score ≥3 points (bacterial vaginosis; [3]): 65.2%
- Patients with decreased Nugent score ≥5 points (bacterial vaginosis; [3]): 47.8%
- Recovered patients, both criteria (Amsel and Nugent) (bacterial vaginosis; [3]): 48.0%
- Recovered patients, clinical evaluation criteria (Amsel) (bacterial vaginosis; [3]): 80.0%
- Recovered patients, microbiological evaluation criteria (Nugent) (bacterial vaginosis; [3]): 48.0%
- Patients with decreased Nugent score ≥3 points (bacterial vaginosis; [4]): higher than 65%
- Patients with decreased Nugent score ≥5 points (bacterial vaginosis; [4]): about 48%
- Recovered patients, microbiological evaluation criteria (Nugent) (bacterial vaginosis; [4]): 47%
- Patients with decrease Nugent score ≥8 points (bacterial vaginosis; [5]): 15.79%
- Patients with decreased Nugent score ≤0 points (not responding) (bacterial vaginosis; [5]): 36.84%
- Patients with decreased Nugent score ≥3 points (bacterial vaginosis; [5]): 36.9%
- Patients with decreased Nugent score ≥5 points (bacterial vaginosis; [5]): 26.3%
- Recovered patients, both criteria (Amsel and Nugent) (bacterial vaginosis; [5]): 36.0%
- Recovered patients, clinical evaluation criteria (Amsel) (bacterial vaginosis; [5]): 72.0%
- Recovered patients, microbiological evaluation criteria (Nugent) (bacterial vaginosis; [5]): 36.0%
- Patients with decreased Nugent score ≥3 points (bacterial vaginosis; [6]): higher than 30%
- Patients with decreased Nugent score ≥5 points (bacterial vaginosis; [6]): about 26%
- Recovered patients, microbiological evaluation criteria (Nugent) (bacterial vaginosis; [6]): about 36%
- Recovered patients, both criteria (Amsel and Nugent) (bacterial vaginosis; visit V4, Group A: 1 tablet 100 mg × 5 days): 14.8%
- Recovered patients, both criteria (Amsel and Nugent) (bacterial vaginosis; visit V4, Group B: 1 tablet 25 mg × 5 days): 28.0%
- Recovered patients, both criteria (Amsel and Nugent) (bacterial vaginosis; visit V4, Group C: 1 tablet 100 mg × 2 days): 4.0%
- Recovery of patients after relapse of bacterial vaginosis (bacterial vaginosis; [7]): 38.5%
- Recovery of patients suffering from a first episode of bacterial vaginosis (bacterial vaginosis; [7]): 14.3%
- Recovery of patients after relapse of bacterial vaginosis (bacterial vaginosis; [8]): 53.8%
- Recovery of patients suffering from a first episode of bacterial vaginosis (bacterial vaginosis; [8]): 41.7%
- Recovery of patients after relapse of bacterial vaginosis (bacterial vaginosis; [9]): 46.2%
- Recovery of patients suffering from a first episode of bacterial vaginosis (bacterial vaginosis; [9]): 25.0%
- change of Gardnerella vaginalis concentration by real-time PCR (Gardnerella vaginalis; [10]): reduction
- Target DNA/genomic vaginal DNA, Gardnerella vaginalis (Gardnerella vaginalis; [11]): 34.92 ng/µg
- Target DNA/genomic vaginal DNA, Gardnerella vaginalis (Gardnerella vaginalis; [12]): 119.4 ng/µg
- Target DNA/genomic vaginal DNA, Gardnerella vaginalis (Gardnerella vaginalis; [13]): 66.74 ng/µg
- Target DNA/genomic vaginal DNA, Gardnerella vaginalis (Gardnerella vaginalis; [1]): 23.56 ng/µg
- Target DNA/genomic vaginal DNA, Gardnerella vaginalis (Gardnerella vaginalis; [3]): 66.26 ng/µg
- Target DNA/genomic vaginal DNA, Gardnerella vaginalis (Gardnerella vaginalis; [5]): 29.44 ng/µg
- Target DNA/genomic or vaginal DNA, Gardnerella vaginalis (Gardnerella vaginalis; [7]): 3.067 ng/µg
- Target DNA/genomic or vaginal DNA, Gardnerella vaginalis (Gardnerella vaginalis; [8]): 17.57 ng/µg
- Target DNA/genomic or vaginal DNA, Gardnerella vaginalis (Gardnerella vaginalis; [9]): 75.09 ng/µg
- change of Atopopium concentration by real-time PCR (Atopobium; [10]): reduction
- Target DNA/genomic vaginal DNA, Atopobium (Atopobium; [11]): 93.07 ng/µg
- Target DNA/genomic vaginal DNA, Atopobium (Atopobium; [12]): 108.2 ng/µg
- Target DNA/genomic vaginal DNA, Atopobium (Atopobium; [13]): 170.4 ng/µg
- Target DNA/genomic vaginal DNA, Atopobium (Atopobium; [1]): 61.46 ng/µg
- Target DNA/genomic vaginal DNA, Atopobium (Atopobium; [3]): 48.8 ng/µg
- Target DNA/genomic vaginal DNA, Atopobium (Atopobium; [5]): 59.99 ng/µg
- Target DNA/genomic or vaginal DNA, Atopobium (Atopobium; [7]): 5.348 ng/µg
- Target DNA/genomic or vaginal DNA, Atopobium (Atopobium; [8]): 28.25 ng/µg
- Target DNA/genomic or vaginal DNA, Atopobium (Atopobium; [9]): 139.9 ng/µg
- change of Prevotella concentration by real-time PCR (Prevotella; [10]): reduction
- Target DNA/genomic vaginal DNA, Prevotella (Prevotella; [11]): 18.8 ng/µg
- Target DNA/genomic vaginal DNA, Prevotella (Prevotella; [12]): 18.47 ng/µg
- Target DNA/genomic vaginal DNA, Prevotella (Prevotella; [13]): 17.91 ng/µg
- Target DNA/genomic vaginal DNA, Prevotella (Prevotella; [1]): 12.2 ng/µg
- Target DNA/genomic vaginal DNA, Prevotella (Prevotella; [3]): 3.712 ng/µg
- Target DNA/genomic vaginal DNA, Prevotella (Prevotella; [5]): 7.248 ng/µg
- Target DNA/genomic or vaginal DNA, Prevotella (Prevotella; [7]): 0.04296 ng/µg
- Target DNA/genomic or vaginal DNA, Prevotella (Prevotella; [8]): 2.345 ng/µg
- Target DNA/genomic or vaginal DNA, Prevotella (Prevotella; [9]): 54 ng/µg
- Target DNA/genomic vaginal DNA, Veillonella (Veillonella; [11]): 0.04128 ng/µg
- Target DNA/genomic vaginal DNA, Veillonella (Veillonella; [12]): 0.03492 ng/µg
- Target DNA/genomic vaginal DNA, Veillonella (Veillonella; [13]): 0.2214 ng/µg
- Target DNA/genomic vaginal DNA, Veillonella (Veillonella; [1]): 0.007807 ng/µg
- Target DNA/genomic vaginal DNA, Veillonella (Veillonella; [3]): 0.01761 ng/µg
- Target DNA/genomic vaginal DNA, Veillonella (Veillonella; [5]): 0.005642 ng/µg
- Target DNA/genomic or vaginal DNA, Veillonella (Veillonella; [7]): 0 ng/µg
- Target DNA/genomic or vaginal DNA, Veillonella (Veillonella; [8]): 0 ng/µg
- Target DNA/genomic or vaginal DNA, Veillonella (Veillonella; [9]): 0.2748 ng/µg
